From EP0429372A1, “2-Azolyl nicotinate derivatives as herbicides” (RHONE-POULENC AGROCHIMIE, priority 1989, dated 1991)

Tests used:
Type in all cases: in vivo
Digitaria sanguinalis = assay: Example B: post-emergence herbicidal application, pot test
Text: (§1) Dans des pots de 7 x 7 x 8 cm remplis de terre agricole légère, on sème un nombre de graines déterminé en fonction de l'espèce végétale et de la grosseur de la graine.
(§2) On recouvre ensuite les graines d'une couche de terre d'environ 3 mm d'épaisseur et on laisse germer la graine jusqu'à ce qu'elle donne naissance à une plantule au stade convenable. Le stade de traitement pour les graminées est le stade "deuxième feuille en formation ". Le stade de traitement pour les dicotylédones, est le stade "cotylédons étalés, première feuille vraie en développement".
(§3) Les pots sont alors traités par pulvérisation de bouillie en quantité correspondant à une dose volumique d'application de 500 l/ha et contenant la matière active à la concentration désirée.
(§4) La bouille a été préparée de la même manière qu'à l'exemple A.
(§5) Les pots traités sont ensuite placés dans des bacs destinés à recevoir l'eau d'arrosage, en subirrigation, et maintenus pendant 24 jours à température ambiante sous 70 % d'humidité relative.
(§6) Au bout de 24 jours, on mesure un pourcentage (D) de destruction du nombre de pieds dans le pot traité par rapport au nombre de plantes dans les pots non traités (témoin). On mesure, sur les plantes traitées restantes, le pourcentage de réduction de taille (RT) par rapport aux plantes témoin.
(§7) Le pourcentage du volume foliaire non détruit par le produit est donc donné par la formule : [formula]
(§8) Cette valeur A est transformée en notation de 0 à 5 selon l'échelle suivante :
(§9) Les résultats obtenus sont présentés après le tableau A pour des doses d'application de 4000 g/ha.

Echinochloa crusgalli = assay: as above
Text: as §1, §2, §3, §4, §5, §6, §7, §8, §9

Ipomea purpurea = assay: as above
Text: as §1, §2, §3, §4, §5, §6, §7, §8, §9

Lolium multiflorum = assay: as above
Text: as §1, §2, §3, §4, §5, §6, §7, §8, §9

Sinapis alba = assay: as above
Text: as §1, §2, §3, §4, §5, §6, §7, §8, §9

Solanum nigrum [1] = assay: as above
Text: as §1, §2, §3, §4, §5, §6, §7, §8, §9

Ipomea pupurea = assay: Example C: selectivity test in major crops, post-emergence application
Text: as §1
as §2, with “formation".” for “formation ".”
as §3
(§10) La bouillie a été préparée de la même manière qu'à l'exemple A.
as §5, §6
(§11) Le pourcentage de volume foliaire non détruit par le produit est donc donné par la formule : [formula]
as §8
(§12) Ainsi, un produit est jugé comme sélectif vis à vis de la culture lorsque la valeur A notée est de 0 ou 1.
(§13) Les résultats obtenus sont présentés dans l'exemple C pour des doses d'application comprises entre 0,5 et 4 kg de matière active par hectare selon les produits.

Oryza sativa = assay: as above; settings: crop (Riz), dose 2 kg/ha, 24 days, score 0-5, 0 or 1 = selective; further: ranges in brackets are in %
Text: as §1
as §2, with “formation".” for “formation ".”
as §3, §10, §5, §6, §11, §8, §12, §13

Sesbania exaltata = assay: as above
Text: as §1
as §2, with “formation".” for “formation ".”
as §3, §10, §5, §6, §11, §8, §12, §13

Solanum nigrum [2] = assay: as above
Text: as §1
as §2, with “formation".” for “formation ".”
as §3, §10, §5, §6, §11, §8, §12, §13

Triticum aestivum = assay: as above; settings: crop (Blé), dose 2 kg/ha, 24 days, score 0-5, 0 or 1 = selective; further: ranges in brackets are in %
Text: as §1
as §2, with “formation".” for “formation ".”
as §3, §10, §5, §6, §11, §8, §12, §13

Viola tricolor = assay: as above
Text: as §1
as §2, with “formation".” for “formation ".”
as §3, §10, §5, §6, §11, §8, §12, §13

Xanthium pennsylvanicum = assay: as above
Text: as §1
as §2, with “formation".” for “formation ".”
as §3, §10, §5, §6, §11, §8, §12, §13

Zea mays = assay: as above; settings: crop (Maïs), dose 2 kg/ha, 24 days, score 0-5, 0 or 1 = selective; further: ranges in brackets are in %
Text: as §1
as §2, with “formation".” for “formation ".”
as §3, §10, §5, §6, §11, §8, §12, §13

[3] = 4 kg/ha, rated after 24 days, score 0-5 from % leaf volume not destroyed
[4] = weed, dose 1 kg/ha, 24 days, score 0-5

| Compound | ACTIVITE DE POST-LEVEE DIG (Digitaria sanguinalis; 4000 g/ha, 576 h) | ACTIVITE DE POST-LEVEE ECH (Echinochloa crusgalli; 4000 g/ha, 576 h) | ACTIVITE DE POST-LEVEE IPO (Ipomea purpurea; 4000 g/ha, 576 h) | ACTIVITE DE POST-LEVEE LOL (Lolium multiflorum; 4000 g/ha, 576 h) | ACTIVITE DE POST-LEVEE SIN (Sinapis alba; 4000 g/ha, 576 h) | ACTIVITE DE POST-LEVEE SOL (Solanum nigrum [1]; 4000 g/ha, 576 h) | also measured |
| --- | --- | --- | --- | --- | --- | --- | --- |
| CN(C)S(=O)(=O)n1nc(-c2ccc(Cl)cc2Cl)nc1-c1ncccc1C(=O)O [compound 3] | 0 (90 à 100) | 0 (90 à 100) | 2 (50 à 70) | 0 (90 à 100) | 2 (50 à 70) | 3 (30 à 50) | – |
| CCN(CC)S(=O)(=O)n1nc(-c2ccccc2)nc1-c1ncccc1C(=O)O [compound 4] | 3 (30 à 50) | 3 (30 à 50) | 2 (50 à 70) | – | 2 (50 à 70) | 1 (70 à 90) | – |
| CN(C)S(=O)(=O)n1nc(-c2ccccc2)nc1-c1ncccc1C(=O)O [compound 6] | 0 (90 à 100) | 0 (90 à 100) | 4 (10 à 30) | – | 5 (O à 10) | 5 (O à 10) | ACTIVITE HERBICIDE DE POST LEVEE I P O (Ipomea pupurea; 2000 g/ha, 576 h): 5 (O à 10); ACTIVITE HERBICIDE DE POST LEVEE O R Y (Oryza sativa): 0 (90 à 100); ACTIVITE HERBICIDE DE POST LEVEE S E S (Sesbania exaltata; 2000 g/ha, 576 h): 5 (O à 10); ACTIVITE HERBICIDE DE POST LEVEE S O L (Solanum nigrum [2]; 2000 g/ha, 576 h): 5 (O à 10); ACTIVITE HERBICIDE DE POST LEVEE T R Z (Triticum aestivum): 0 (90 à 100); ACTIVITE HERBICIDE DE POST LEVEE V I O (Viola tricolor; 2000 g/ha, 576 h): 4 (10 à 30); ACTIVITE HERBICIDE DE POST LEVEE X A N (Xanthium pennsylvanicum; 2000 g/ha, 576 h): 4 (10 à 30); ACTIVITE HERBICIDE DE POST LEVEE Z E A (Zea mays): 0 (90 à 100) |
| CN(C)S(=O)(=O)n1nc(C(C)(C)C)nc1-c1ncccc1C(=O)O [compound 12] | 0 (90 à 100) | 0 (90 à 100) | 3 (30 à 50) | 0 (90 à 100) | 4 (10 à 30) | 4 (10 à 30) | – |
| O=C(O)c1cccnc1-c1nc(-c2ccccc2)nn1S(=O)(=O)N1CCCC1 [compound 15] | 3 (30 à 50) | 3 (30 à 50) | 2 (50 à 70) | 3 (30 à 50) | 1 (70 à 90) | 1 (70 à 90) | – |
| COC(=O)c1cccnc1-c1nc(-c2ccccc2)nn1S(=O)(=O)c1ccccc1Cl [compound 24] | 0 (90 à 100) | 0 (90 à 100) | 3 (30 à 50) | 0 (90 à 100) | 3 (30 à 50) | 3 (30 à 50) | – |
| O=C(O)c1cccnc1-c1n[nH]c(-c2ccccc2)n1 [compound 42, 3 - (3 - carboxy 2 - pyridyl) 5 - phényl 1,2,4 - triazole] | – | – | – | – | – | – | ACTIVITE DE POST-LEVEE ECH (Echinochloa crusgalli; [3]): 2 (50 à 70); ACTIVITE DE POST-LEVEE IPO (Ipomea purpurea; [3]): 4 (10 à 30); ACTIVITE DE POST-LEVEE LOL (Lolium multiflorum; [3]): 1 (70 à 90); ACTIVITE DE POST-LEVEE SIN (Sinapis alba; [3]): 4 (10 à 30) |
| O=C(O)c1cccnc1-c1n[nH]c(-c2ccc(Cl)cc2Cl)n1 [compound 43] | 3 (30 à 50) | 4 (10 à 30) | 4 (10 à 30) | 3 (30 à 50) | 5 (O à 10) | 3 (30 à 50) | – |
| O=C(O)c1cccnc1-c1n[nH]c(-c2sc(Cl)c(Cl)c2Cl)n1 [compound 44] | 1 (70 à 90) | 2 (50 à 70) | 3 (30 à 50) | 0 (90 à 100) | 4 (10 à 30) | 1 (70 à 90) | – |
| O=C(O)c1cccnc1-c1n[nH]c(Cc2ccccc2)n1 [compound 45] | 3 (30 à 50) | 3 (30 à 50) | 3 (30 à 50) | 2 (50 à 70) | 2 (50 à 70) | 3 (30 à 50) | – |
| O=C(O)c1cccnc1-c1n[nH]c(-c2cccc(Cl)c2)n1 [compound 48] | 3 (30 à 50) | 3 (30 à 50) | 3 (30 à 50) | 2 (50 à 70) | 2 (50 à 70) | 1 (70 à 90) | – |
| O=C(O)c1cccnc1-c1n[nH]c(-c2cc(Cl)cc(Cl)c2)n1 [compound 50] | 2 (50 à 70) | 3 (30 à 50) | 3 (30 à 50) | 0 (90 à 100) | 0 (90 à 100) | 0 (90 à 100) | – |
| Cc1ccccc1-c1nc(-c2ncccc2C(=O)O)n[nH]1 [compound 54] | 3 (30 à 50) | 2 (50 à 70) | 0 (90 à 100) | 3 (30 à 50) | 1 (70 à 90) | 3 (30 à 50) | – |
| O=C(O)c1cccnc1-c1n[nH]c(C=Cc2ccccc2)n1 [compound 67] | 2 (50 à 70) | 0 (90 à 100) | 3 (30 à 50) | 0 (90 à 100) | 2 (50 à 70) | 2 (50 à 70) | – |
| O=C(O)c1cccnc1-c1n[nH]c(-c2cc(Cl)ccc2Cl)n1 [compound 73] | 2 (50 à 70) | 3 (30 à 50) | 3 (30 à 50) | 2 (50 à 70) | 3 (30 à 50) | 3 (30 à 50) | – |
| CN(C)S(=O)(=O)n1c(-c2ncccc2C(=O)O)nc2ccccc21 [compound 75, 2-(1-N,N diméthylsulfamoyl 2-benzimidazolyl) 3-carboxy pyridine] | – | – | – | – | – | – | ACTIVITE DE POST-LEVEE DIG (Digitaria sanguinalis; [3]): 0 (90 à 100); ACTIVITE DE POST-LEVEE ECH (Echinochloa crusgalli; [3]): 0 (90 à 100); ACTIVITE DE POST-LEVEE IPO (Ipomea purpurea; [3]): 4 (10 à 30); ACTIVITE DE POST-LEVEE SIN (Sinapis alba; [3]): 5 (O à 10); ACTIVITE DE POST-LEVEE SOL (Solanum nigrum [1]; [3]): 5 (O à 10); ACTIVITE HERBICIDE DE POST LEVEE I P O (Ipomea pupurea; weed, post-emergence, dose 1 kg/ha, 24 days, score 0-5): 5 (O à 10); ACTIVITE HERBICIDE DE POST LEVEE S E S (Sesbania exaltata; [4]): 5 (O à 10); ACTIVITE HERBICIDE DE POST LEVEE S O L (Solanum nigrum [2]; [4]): 5 (O à 10); ACTIVITE HERBICIDE DE POST LEVEE V I O (Viola tricolor; [4]): 4 (10 à 30); ACTIVITE HERBICIDE DE POST LEVEE X A N (Xanthium pennsylvanicum; [4]): 5 (O à 10) |
| CN(C)S(=O)(=O)n1c(-c2ncccc2C(=O)O)nc2ccccc21 [compound 121] | 0 (90 à 100) | 3 (30 à 50) | 4 (10 à 30) | – | 5 (O à 10) | 5 (O à 10) | – |
